The results in this text go back to patent US20090291857A1, “METHODS TO IDENTIFY INHIBITORS OF THE UNFOLDED PROTEIN RESPONSE” (THE BOARD OF TRUSTEES OF THE LELAND STANFORD JUNIOR …, priority 2006, published 2009).

Assay [1] has as its system IRE1α/XBP-1 pathway (XBP1-luciferase reporter). Kind of assay: High throughput XBP-luciferase reporter screen, tunicamycin/thapsigargin induced (HTS and IRE IC50). It counts as cell-based, human. As to the method:
Specifically, HT1080 fibrosarcoma cells stably transfected with the unspliced XBP-1-luciferase reporter construct (3000/well) were plated onto a solid white 384 well microplate with a multidrop dispenser (40 μL per well). The plates were then placed into an automated incubator. After 24 hours of growth, a mixture of tunicamycin (1 μg/ml) and thapsigargin (100 nM) inducers were added, and candidate compounds were then added to the plates. After 24 hours, luciferase reagent (10 μl) was added to each well and the plates were read in a Molecular Devices Analyst GT (0.2 second read per well).
As described above in Example 2, HT1080 fibrosarcoma cells stably expressing the XBP-luciferase reporter were plated in a 384 well microplate (4000 cells/well). After 24 hours, cells were treated with a mixture of tunicamycin (4 μg/ml) and thapsigargin (0.4 μM), followed by the addition of one compound per well (10 μM). We screened a total of 66,000 diverse molecules obtained from Specs, Chembridge and ChemRX. Twenty-four hours post-induction, BriteGlo luciferase substrate (10 μl) was added to each well and the signal intensity determined in a plate reader (0.2 s read per well). […] We retested 431 compounds from the initial screen, and selected 58 compounds for additional analysis, including calculation of IC50 values and inhibition of a CMV-luciferase reporter.
A. XBP-luciferase reporter construct. Firefly luciferase was inserted downstream of the IRE1α splice site in human XBP-1 to enable the conditional translation of luciferase under ER stress in an IRE1α-dependent manner. B. Selective inhibition of the XBP-luciferase reporter by irestatin 9389. HT1080 human fibrosarcoma cells stably expressing the XBP-luciferase reporter or CMV-luciferase were cultured in the presence of Tm (4 μg/ml) and Tg (0.4 μM) and irestatin 9389 at the indicated concentrations. After 24 hours, luciferase activity was analyzed in an automated plate reader. For each cell line, values are expressed as the percent inhibition of the median for Tm/Tg-treated wells, corrected for background. C. Structure of irestatin 9389. D. XBP-luciferase reporter assay. HT1080 cells stably expressing the XBP-luciferase reporter were exposed to Tm (4 μg/ml) for 24 hours or hypoxia (0.1% oxygen) for 24 or 48 hours, in the presence of DMSO or irestatin 9389 (1 μM) as indicated. Values are expressed as the fold increases over uninduced levels. E. 5X-UPRE reporter assay. HT1080 cells were co-transfected with 5X-UPRE luciferase and SV40-beta-gal reporter plasmids, followed by exposure to Tm or hypoxia as in D. For each condition, luciferase activity is normalized to beta-galactosidase expression levels as an internal control for transfection efficiency. F. Western immunoblot analysis of XBP-1s. HT1080 cells were left untreated (lane 2) or exposed to Tm (4 μg/ml) for 20 hours in the presence of DMSO vehicle (lane 1) or the indicated irestatins (2 μM; lanes 3-6). Cell lysates were resolved by SDS-PAGE and immunoblotting using antisera specific for XBP-1s (top panel) or actin and GAPDH (bottom panel) as loading controls. […] HT1080 cells were treated with DMSO or exposed to irestatin 9389 (2 μM; lane 3) in normoxia (N) or under hypoxia for 24 hours (H 24; lanes 2,3). Cells were harvested, lysed, and analyzed by immunoblotting with antisera specific for HIF-1α (top), XBP-1s (middle) or actin (bottom). H. Northern blot analysis of XBP-1s transcription targets. Cells were exposed to Tm (4 μg/ml) or hypoxia for 24 hours (H 24) in the absence or presence of irestatin 9389 (2 μM). Total RNA was analyzed by Northern blotting using radiolabeled probes specific for P58^IPK or DER-1. Total rRNA is shown as loading control.
As described above, a HT1080 fibrosarcoma cell line stably expressing a fusion of unprocessed XBP-1 inserted upstream of firefly luciferase has been developed to identify small molecule inhibitors of the IRE1α/XBP-1 signaling module. […]

Another assay relates to JNK1. In words: JNK1 activation under ER stress. Type of assay: cell-based, human. To be noted: 2.5 μM, 2 hour preincubation, Tm 4 μg/ml 1.5 hrs. As to the method:
HT1080 cells were exposed to DMSO vehicle (lane 1), irestatin 9389 (2.5 μM; lane 2) for 16 hours or Tm (5 μg/ml; lane 3) for 8 hours. Following treatments, cells were harvested, lysed, and analyzed by immunoblotting using anti-Grp78 antibody (top) or anti-actin (bottom) as a loading control. B. Effect of irestatin 9389 on IRE1α expression and kinase function. HT1080 cells were preincubated for 16 hours with either vehicle or irestatin 9389 (2.5 μM), followed by addition of Tm (5 μg/ml) for the indicated times. Cell lysates were analyzed by Western immunoblotting using anti-IRE1α (bottom) or anti-phospho-IRE1α antibodies (top). C. Effect of irestatins on JNK1 activation under ER stress. HT1080 cells were untreated (lane 1), exposed to TNF-α (10 ng/ml, 10 min), or Tm (4 μg/ml, 1.5 hrs) (lanes 3-8) following a 2 hour preincubation in the presence of vehicle (lane 3) or the indicated irestatins (2.5 μM; lanes 4-8). Lysates were analyzed by Western blot using antisera specific for phospho-JNK1 (top) or total JNK1 (bottom). […] F. Quantification of RNA cleavage kinetics. […] Samples were analyzed as in (E).
Activation of IRE1α is preceded by ATP binding and autophosphorylation, and the IRE1α kinase is required for endonuclease activity. […] Cells were then harvested at regular intervals, and activation of the IRE1α kinase was assessed by immunoblotting using anti-phospho-IRE1α antisera.

For the compound `Cc1csc(NC(=O)CSc2nc3c(c(C(F)(F)F)c2C#N)CCC3)n1` [Compound 9389], the “inhibition of IRE1α / IRE1α/XBP-1 signaling module in screen” value in assay [1] (HT1080 XBP-luciferase, Tm/Tg) is “potent and specific inhibition of IRE1α”. The inhibition at 10 µM in assay [1] (Homo sapiens, 24 h, inhibition of XBP1-luciferase reporter, read-out: Activity Class) is 75 to 100%. Moreover, the IC50 in assay [1] (Homo sapiens, HT-1080, 24 h, HT1080, Tm 4 μg/ml and Tg 0.4 μM, 24 hours, read-out: mean inhibitory concentration (IC50) of XBP-luciferase activity) was about 0.025 µM. Besides, the inhibition at 20 µM in assay [1] (Homo sapiens, IRE IC50 assay, Conc 20 uM) was 87.1%. Besides, in the assay on JNK1, the “phosphorylation of JNK1 during Tm-induced ER stress” value was “failed to block the phosphorylation of JNK1”.
